Test results from patent publication US8017611B2, “Pyridine and pyrazine derivatives -083” (AstraZeneca AB, priority 2007, dated 2011).

Target: T1, recombinant Axl tyrosine kinase (Homo sapiens, UniProt P30530)
T1 construct: encompassing amino acids 473 to 894 of Axl; GST (N); made in house; host or cells: SF126 insect cells
T1 sequence (P30530 473-894): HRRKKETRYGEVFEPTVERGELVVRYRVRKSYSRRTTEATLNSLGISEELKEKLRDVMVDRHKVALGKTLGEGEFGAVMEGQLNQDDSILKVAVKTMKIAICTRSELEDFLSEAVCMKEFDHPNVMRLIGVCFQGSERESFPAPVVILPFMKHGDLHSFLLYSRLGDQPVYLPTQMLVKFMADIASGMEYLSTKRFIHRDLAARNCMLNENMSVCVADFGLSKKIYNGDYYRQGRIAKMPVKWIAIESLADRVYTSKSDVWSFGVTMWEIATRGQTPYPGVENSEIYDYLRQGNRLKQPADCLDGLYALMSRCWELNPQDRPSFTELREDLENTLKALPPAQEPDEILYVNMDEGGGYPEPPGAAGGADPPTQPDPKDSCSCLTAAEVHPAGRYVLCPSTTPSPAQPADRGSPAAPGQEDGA
Assay: In vitro Axl kinase assay (AlphaScreen), Test (a)
Type: biochemical
Details: test compound at 1 μM, first value quoted; for inhibition at 1 µM: read-out: % Axl tyrosine kinase inhibition at 1 μM concentration

| % Axl tyrosine kinase inhibition at 1 μM concentration | inhibition at 1 µM | SMILES |
| --- | --- | --- |
| 100.0% | – | Cc1nn(C2CCN(C)CC2)cc1-c1cnc(N)c(-c2nc3ccccc3o2)n1 [Example 41.21] |
| 98.1% | – | COc1cc(-c2cnc(N)c(-c3nc4ncccc4o3)c2)ccc1OCCCN1CCS(=O)(=O)CC1 [Example 43C.16] |
| – | 100% | Nc1ncc(-c2cn(C3CCNCC3)nc2CO)cc1-c1nc2ccccc2o1 [Example 25.13, [4-[6-amino-5-(1,3-benzoxazol-2-yl)-3-pyridyl]-1-(4-piperidyl)pyrazol-3-yl]methanol] |
| – | 99.9% | COCC(=O)N1CCC(n2cc(-c3cnc(N)c(-c4nc5ccccc5o4)c3)cn2)CC1 [Example 33, 1-[4-[4-[6-amino-5-(1,3-benzoxazol-2-yl)-3-pyridyl]pyrazol-1-yl]-1-piperidyl]-2-methoxy-ethanone] |
| 85.6% | – | Nc1ncc(-c2cccc(N3CCCC3)c2)nc1-c1nc2ccccc2o1 [Example 20.5] |
| 22.4% | – | Nc1ncc(-c2cccc(N3CCCC3)c2)cc1-c1nc2ccccc2o1 [Example 2.32] |
| 97.3% | – | Nc1ncc(-c2ccc(C(=O)N3CCN(Cc4ccncc4)CC3)cc2)cc1-c1nc2cccnc2o1 [Example 45A.62] |
| 91.3% | – | Nc1ncc(-c2ccc(C(=O)N3CCN(CCN4CCCC4)CC3)cc2)cc1-c1nc2cccnc2o1 [Example 45A.68] |
| – | 99.9% | Cc1nn(C2CCNCC2)cc1-c1cnc(N)c(-c2nc3ccccc3o2)n1 [Example 20.20, 3-(1,3-benzoxazol-2-yl)-5-[3-methyl-1-(4-piperidyl)pyrazol-4-yl]pyrazin-2-amine] |
| 98.4% | – | Nc1ncc(-c2ccc(C(=O)N3CCCNCC3)cc2)cc1-c1nc2cccnc2o1 [Example 45A.82] |
| 99.0% | – | NCc1ccc(-c2cnc(N)c(-c3nc4ncccc4o3)c2)cc1 [Example 10A.4] |
| 99.9% | – | COCc1cccc(-c2cnc(N)c(-c3nc4ncccc4o3)c2)c1 [Example 10A.16] |
| – | 100% | Nc1ncc(-c2cn(C3CCNCC3)nn2)cc1-c1nc2ccccc2o1 [Example 40, 3-(1,3-benzoxazol-2-yl)-5-[1-(4-piperidyl)triazol-4-yl]pyridin-2-amine] |
| 99.3% | – | CC(=O)N1CCC(n2cc(-c3cnc(N)c(-c4nc5cccnc5o4)c3)cn2)CC1 [Example 57.4] |
| 100.0% | – | COc1nn(C2CCNCC2)cc1-c1cnc(N)c(-c2nc3ccccc3o2)c1 [Example 25.2] |
| 98.6% | – | Nc1ncc(-c2ccc(C(=O)N3CCC(N4CCOCC4)CC3)cc2)cc1-c1nc2cccnc2o1 [Example 45A.64] |
| 95.1% | – | Nc1ncc(-c2ccc(C(=O)N3CCN(Cc4cccnc4)CC3)cc2)cc1-c1nc2cccnc2o1 [Example 45A.61] |
| – | 100% | CN(C)C(=O)CN1CCC(n2cc(-c3cnc(N)c(-c4nc5ccccc5o4)c3)c(CO)n2)CC1 [Example 69, 2-[4-[4-[6-amino-5-(1,3-benzoxazol-2-yl)-3-pyridyl]-3-(hydroxymethyl)pyrazol-1-yl]-1-piperidyl]-N,N-dimethyl-acetamide] |
| 99.7% | – | NCC[C@H]1CCCN(C(=O)c2ccc(-c3cnc(N)c(-c4nc5cccnc5o4)c3)cc2)C1 [Example 45A.92] |
| – | 99.2% | Nc1ncc(-c2cnn(C3CCCCO3)c2)cc1-c1nc2ccccc2o1 (stereo not shown) [Example 2.55, 3-(1,3-benzoxazol-2-yl)-5-(1-tetrahydropyran-2-ylpyrazol-4-yl)pyridin-2-amine] |
| 99.8% | – | Nc1ncc(-c2cnn(C3CCN(C(=O)CO)CC3)c2)cc1-c1nc2cccnc2o1 [Example 57.6] |
| 67.3% | – | NC(=O)c1cccc(-c2cnc(N)c(-c3nc4ccccc4o3)c2)c1 [Example 2.34] |
